Reference: article PMC6770469, “IDE Degrades Nociceptin/Orphanin FQ through an Insulin Regulated Mechanism” (International Journal of Molecular Sciences, 2019)
Where a SMILES comes first, the peptide text is derived from it. Where no end group is shown, it is not given here. [ ]: non-standard residue; d: D form. The star is where a group is joined. Sta = CC(C)C[C@H](N)[C@@H](O)CC(=O)O; Isovaleryl = CC(C)CC(=O)*

Experiments:
[1] = system: rat spinal cord peptidases; experiment: OFQ/N cleavage by rat spinal cord homogenate with peptidase inhibitors (MALDI-MS); assay type: biochemical; details: rat spinal cord extract, 20 mM Tris-HCl 1 mM EDTA pH 7.8, 37 °C, 30 min; for inhibition of the cleavage of OFQ/N into the bioactive fragments (1-11), (1-7), (1-6): TPCK 1 mM, PMSF 1 mM, NEM 1 mM (Figure 6); for inhibition of the formation of the (1-11) fragment from OFQ/N: PHMB 0.25 mM, pepstatin A 0.01 mM (Figure 6)
Protocol: Tissue homogenate preparation: One rat spinal cord tissue was homogenized in 1 mL of ice-cold 20 mM Tris-HCl (Sigma, Milan, Italy) and 1 mM EDTA (Sigma, Milan, Sigma) using mechanical homogenizer. The obtained homogenate was centrifuged at 5000× g for 15 min at 4 °C. The supernatant was then centrifuged at 20,000× g for 15 min at 4 °C. Finally, the supernatant was divided into small aliquots and kept frozen at −80 °C [13].
Tissue extract (supernatant) incubation assays: Incubations were performed using one microliter of tissue extract diluted with 19 µL of 20 mM Tris-HCl 1 mM EDTA buffer pH 7.8 and 10 µL of Milli-Q water. Then, the reaction was initiated by the addition of 10 µL of OFQ/N 0.3 mM and continued at 37 °C for 30 min. Then, 40 µL of ice-cold methanol was used to stop the reaction. Incubation was repeated as mentioned above but adding different peptidase inhibitors. The inhibitors used for the incubation were: TPCK (tosyl phenylalanyl chloromethyl ketone) 1 mM, PMSF (phenylmethylsulfonyl fluoride) 1 mM, NEM (N-ethylmaleimide) 1 mM, PHMB (4-(hydroxymercuri)benzoic acid) 0.25 mM, pepstatin A 0.01 mM, and Ag^+ 1 mM. Enzyme assay including spinal cord homogenate was also validated using dynorphin B, as described previously. One microliter aliquots taken from each incubation mixture were analyzed using MALDI mass spectrometry. α-Cyano-4-hydroxycinnamic acid (4-HCCA) was used as matrix, and the final samples were spotted onto AnchorChip™ plate (Bruker Daltonics, 2013). The standard used for the calibration of the instrument is the Peptide Calibration Standard II by Bruker Daltonics, Macerata, Italy. Details and parameters of the instrument set-up were: mass range: 340–4000 Da; detector gain/reflector: 6.3x (2480 V); sample rate and digitizer settings: 2.50 GS/s; smartbeam parameter set: 4_large; positive ion mode; matrix suppression: off; random walk: complete sample; shots at raster spot: 200; limit diameter to: 800 µm; laser power: 20%; shots: 5000.

mouse = details: cited from earlier work
[2] = molecular target: T1, insulin-degrading enzyme (IDE) (Homo sapiens, UniProt P14735); experiment: IDE degradation assays (time-course hydrolysis of the substrate, UPLC-HRMS); assay type: in vitro ADME
T1 construct: purchased Giotto Biotech, Florence, Italy
T1 sequence (P14735 whole entry, species assumed): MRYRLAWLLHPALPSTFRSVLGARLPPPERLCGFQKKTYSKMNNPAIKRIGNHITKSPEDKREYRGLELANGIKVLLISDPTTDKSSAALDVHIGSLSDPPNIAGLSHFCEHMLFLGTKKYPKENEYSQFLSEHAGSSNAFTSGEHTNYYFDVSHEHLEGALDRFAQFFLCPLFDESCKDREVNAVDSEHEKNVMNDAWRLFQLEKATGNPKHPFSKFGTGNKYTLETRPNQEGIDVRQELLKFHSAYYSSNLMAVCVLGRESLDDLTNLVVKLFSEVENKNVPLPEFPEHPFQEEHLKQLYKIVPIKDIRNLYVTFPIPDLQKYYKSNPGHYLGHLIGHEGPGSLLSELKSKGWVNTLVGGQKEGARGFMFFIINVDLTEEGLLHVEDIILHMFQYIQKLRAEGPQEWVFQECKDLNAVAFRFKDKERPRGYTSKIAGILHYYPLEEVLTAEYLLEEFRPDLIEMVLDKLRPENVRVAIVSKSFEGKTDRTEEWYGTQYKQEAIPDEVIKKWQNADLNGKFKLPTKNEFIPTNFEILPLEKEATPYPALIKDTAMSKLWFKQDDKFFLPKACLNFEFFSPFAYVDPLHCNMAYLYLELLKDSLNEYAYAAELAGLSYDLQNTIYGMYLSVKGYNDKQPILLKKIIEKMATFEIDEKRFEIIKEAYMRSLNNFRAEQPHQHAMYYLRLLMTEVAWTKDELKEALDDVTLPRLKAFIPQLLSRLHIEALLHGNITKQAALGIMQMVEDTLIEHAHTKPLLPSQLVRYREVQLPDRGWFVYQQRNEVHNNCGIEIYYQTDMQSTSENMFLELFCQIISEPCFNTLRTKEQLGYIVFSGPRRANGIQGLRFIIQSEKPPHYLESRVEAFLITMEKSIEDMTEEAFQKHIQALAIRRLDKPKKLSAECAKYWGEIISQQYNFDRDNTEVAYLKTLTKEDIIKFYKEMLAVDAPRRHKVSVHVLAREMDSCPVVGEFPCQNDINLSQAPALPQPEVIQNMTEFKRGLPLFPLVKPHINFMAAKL
Protocol: IDE degradation assays: Insulin (Ins, 2 µM, purchased from Sigma, Milan, Italy) and nociceptin peptide (OFQ/N, 2 µM, synthesized by the Fmoc solid phase synthesis and purified in our laboratory using RP HPLC) were tested for their purity using electrospray mass spectrometry (over 98% purity), and hydrolyzed in the presence of insulin-degrading enzyme (IDE, 30 nM, purchased from Giotto Biotech, Florence, Italy) in phosphate buffer 1 mM (pH 7.4, Sigma). We applied 1-16 sequence of OFQ/N because there is no difference in binding of this fragment to NOP receptors. Ins and OFQ/N were hydrolyzed both separately and in a mixture. Moreover, a pre-incubation of OFQ/N with IDE for 20 min was also performed before the addition of Ins. In order to quench the reaction, the samples were diluted 1:1 with 1% TFA aqueous solution.
The peptide content of all samples was analyzed using a Q Exactive hybrid quadrupole-Orbitrap mass spectrometer (Thermo Scientific, Milan, Italy) coupled to an Ultimate 3000 HPLC RSLCnano system (Dionex Thermo Scientific, Milan, Italy) through an EASY-Spray source (Thermo Scientific, Milan, Italy) by using the instrument settings previously reported.

In the case of `O=S(=O)(F)Cc1ccccc1` [PMSF, phenylmethylsulfonyl fluoride], the “inhibition of the cleavage of OFQ/N into the bioactive fragments (1-11), (1-7), (1-6)” value (from here on “inhibition of the cleavage … (1-6)”) [1] was “not efficiently inhibited”.
In the case of `CCN1C(=O)C=CC1=O` [NEM, N-ethylmaleimide], the “inhibition of the cleavage … (1-6)” value [1] was “does not show inhibition”.
For “(1-6): OFQ/N fragment (1-6), final product from (1-11) (FGGFTG; Nociceptin; UniProt Q13519 130-135, looked up, fragment)”, the “effect in different analgesic tests (bi-phasic)” value (mouse; after ICV (Intracerebroventricular) and intrathecal injection, as reported in the literature) is listed as “antinociception followed by a hyperalgesia”.
For `Cc1ccc(S(=O)(=O)N[C@@H](Cc2ccccc2)C(=O)CCl)cc1` [TPCK, tosyl phenylalanyl chloromethyl ketone], the “inhibition of the cleavage … (1-6)” value [1] was “not efficiently inhibited”.
In the case of `CC(C)CC(=O)N[C@H](C(=O)N[C@H](C(=O)N[C@@H](CC(C)C)[C@@H](O)CC(=O)N[C@@H](C)C(=O)N[C@@H](CC(C)C)[C@@H](O)CC(=O)O)C(C)C)C(C)C` [Pepstatin A] (Isovaleryl-VV[Sta]A[Sta]-OH), the “inhibition of the formation of the (1-11) fragment from OFQ/N” value [1] was “slightly inhibits”.
With `O=C(O)c1cc[c]([Hg][OH])cc1` [PHMB, 4-(hydroxymercuri)benzoic acid] the “inhibition of the formation of (1-7) and (1-6) from OFQ/N” value ([1]; PHMB 0.25 mM (Figure 6)) was “inhibits” and the “inhibition of the formation of the (1-11) fragment from OFQ/N” value [1] was “blocks the formation of the (1-11)fragment more than all the other inhibitors”.
In the case of “FGGFTGARKSARKLAN [OFQ/N, Nociceptin/Orphanin 1-16]”, the “time within which the substrate was almost completely degraded by IDE” value ([2]; OFQ/N 2 µM alone, IDE 30 nM, phosphate buffer 1 mM pH 7.4, 37 °C, LC-MS (Figure 3A)) was no more than 10 min, the “OFQ/N content as % of the original value” ([2]; OFQ/N and Ins 1:1 molar ratio (2 µM each) co-incubated with IDE 30 nM, phosphate buffer 1 mM pH 7.4, 37 °C, 30 min reaction, LC-MS (Figure 3B)) was 80% and the “content of OFQ/N, fold lower than its starting value” ([2]; after 20 min pre-incubation of OFQ/N 2 µM with IDE 30 nM at 37 °C, before addition of Ins, phosphate buffer 1 mM pH 7.4, LC-MS (Figure 4A)) was 5 fold.
For “(1-7): OFQ/N fragment (1-7), bioactive shorter sequence (FGGFTGA; Nociceptin; UniProt Q13519 130-136, looked up, fragment)”, the “effect on hyperalgesia induced by OFQ/N” value (mouse; injected in mice) is given as “blocks hyperalgesia”.
